Experiments:
[1] = Pharmacokinetics after IV and PO dosing; details: for AUC(0-t) at 8 h: mouse
Protocol: The pharmacokinetics properties of drugs were investigated in ICR mice following an intravenous (IV) bolus and oral (PO) doses of drug at 5 mg/kg and 25 mg/kg respectively. Blood samples were collected at predetermined times and the plasma separated. Plasma was separated from the blood samples collected at 5,15 and 30 minutes and 1, 2, 4, 8 and 24 hours post-dose.
Drug levels were quantified by the LC/MS/MS method described below. Noncompartmental pharmacokinetic analysis was applied for intravenous administration. […] The terminal t1/2 and Co were calculated using the last three and the first three data points, respectively
Bioanalysis was performed using a Quattro Micro LC/MS/MS instrument in the MRM detection mode, with an internal standard (IS). Briefly, 15 µL plasma samples were prepared for analysis using protein precipitation with 120 µL of acetonitrile. The supernatants were transferred into a 96 well plate and subjected to LC-MS/MS analysis using a Phenomenex Polar-RP HPLC column. The mobile phases were 10 mM NH4HCO3 in water (Solution-A) and 10 mM NH4HCO3 in methanol (Solution-B). […] Quantitation of the analytes was performed in the batch mode with two bracketing calibration curves according to the bioanalytical sample list

[2] = Distribution in plasma and tumors of animals; type: in vivo
Protocol: The distribution of compound A1 in the plasma and tumors of animals was assessed.

MCF-7 xenografts = assay: Tumor suppression in xenograft mice; type: in vivo, NCr nu/nu mice; details: oral administration at 100 mg/kg
Protocol: (§1) Animals were handled under laminar-flow hoods.
(§2) Gemzar™ administered at a dose of 80 mg/kg IP Q3D was used as a positive control.

PC-3 xenografts = assay: Tumor suppression in xenograft mice; type: in vivo, NCr nu/nu mice; details: oral administration at 150 mg/kg
Protocol: as §1, §2

caspase-3 = assay: Caspase staining as biomarker in tumors; type: in vivo; details: 60 mg/kg by IV administration
Protocol: Caspase staining also was assessed as a biomarker for compound A1 treatment of tumors.

HCT-116 = assay: Cell proliferation assay (Alamar Blue); type: cell-based; details: Homo sapiens, 96 h, HCT-116 cells, four days;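 also: fluorescence of unreduced Alamar Blue read roughly 4 h after dye addition, with wells given medium instead of compound serving as controls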
H1299 = assay: Cell proliferation assay (Alamar Blue); type: cell-based; details: Homo sapiens, NCI-H1299, 96 h, H1299 cells, four days
In short: (§3)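 Fluorescence read-out (ex 544 nm, em 590 nm) after a four-hour Alamar Blue incubation, which follows four days of compound exposure at 37°C in 5% CO2. Seeding density is 4,000-5,000 cells per well.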

Hs578T = assay: Cell proliferation assay (Alamar Blue); type: cell-based; details: Homo sapiens, Hs-578T, 96 h, Hs578T cells, four days
In short: as §3

PC3 = assay: Cell proliferation assay (Alamar Blue); type: cell-based; details: Homo sapiens, PC-3, 96 h, PC3 cells, four days
In short: as §3

Jurkat = assay: Cell proliferation assay (Alamar Blue); type: cell-based; details: Homo sapiens, 96 h, Jurkat cells, four days
In short: as §3

MiaPaCa = assay: Cell proliferation assay (Alamar Blue); type: cell-based; details: Homo sapiens, MIA PaCa-2, 96 h, MiaPaCa cells, four days
In short: as §3

A375 = assay: Cell proliferation assay (Alamar Blue); type: cell-based; details: Homo sapiens, A-375, 96 h, A375 cells, four days
In short: as §3

HL-60 = assay: Cell proliferation assay (Alamar Blue); type: cell-based; details: Homo sapiens, 96 h, HL-60 cells, four days
In short: as §3

Raji = assay: Cell proliferation assay (Alamar Blue); type: cell-based; details: Homo sapiens, 96 h, Raji cells, four days
In short: as §3

MDAMB231 = assay: Cell proliferation assay (Alamar Blue); type: cell-based; details: Homo sapiens, MDA-MB-231, 96 h, MDAMB231 cells, four days
In short: as §3

MCF-7 = assay: Cell proliferation assay (Alamar Blue); type: cell-based; details: Homo sapiens, MCF7, 96 h, MCF-7 cells, four days
In short: as §3

LNCaP = assay: Cell proliferation assay (Alamar Blue); type: cell-based; details: Homo sapiens, 96 h, LNCaP cells, four days
In short: as §3

A549 = assay: Cell proliferation assay (Alamar Blue); type: cell-based; details: Homo sapiens, 96 h, A549 cells, four days
In short: as §3

K-562 = assay: Cell proliferation assay (Alamar Blue); type: cell-based; details: Homo sapiens, K562, 96 h, K-562 cells, four days
SK-OV-3 = assay: Cell proliferation assay (Alamar Blue); type: cell-based; details: Homo sapiens, 96 h, SK-OV-3 cells, four days
In short: as §3

COLO205 = assay: Cell proliferation assay (Alamar Blue); type: cell-based; details: Homo sapiens, COLO 205, 96 h, COLO205 cells, four days
In short: as §3

MCF-10A = assay: Cell proliferation assay (Alamar Blue); type: cell-based; details: Homo sapiens, 96 h, MCF-10A cells, four days
In short: as §3

BxPC3 = assay: Cell proliferation assay (Alamar Blue); type: cell-based; details: Homo sapiens, BXPC-3, 96 h, BxPC3 cells, four days
In short: as §3

H460 = assay: Cell proliferation assay (Alamar Blue); type: cell-based; details: Homo sapiens, NCI-H460, 96 h, H460 cells, four days
In short: as §3

PanC1 = assay: Cell proliferation assay (Alamar Blue); type: cell-based; details: Homo sapiens, PANC-1, 96 h, PanC1 cells, four days
In short: as §3

HT29 = assay: Cell proliferation assay (Alamar Blue); type: cell-based; details: Homo sapiens, HT-29, 96 h, HT29 cells, four days
In short: as §3

HL-60/MX2 = assay: Cell proliferation assay (Alamar Blue); type: cell-based; details: Homo sapiens, HL60/MX2, 96 h, HL-60/MX2 cells, four days
In short: as §3

Row | SMILES | IC50 (HL-60) [µM] | IC50 (Raji) [µM] | IC50 (MDAMB231) [µM] | IC50 (MCF-7) [µM] | IC50 (LNCaP) [µM] | IC50 (A549) [µM] | IC50 (K-562) [µM] | IC50 (SK-OV-3) [µM] | IC50 (COLO205) [µM] | IC50 (BxPC3) [µM] | IC50 (H460) [µM] | IC50 (PanC1) [µM] | IC50 (HT29) [µM] | further results
1 | O=C(O)c1ccc2c(c1)nc(Nc1cccc(Cl)c1)c1ccncc12 [A1] |  |  |  |  |  |  |  |  |  |  |  |  |  | CLs ([1]; ICR mice, IV 5 mg/kg): 1.5 L/kg/h; Kel ([1]; ICR mice, IV 5 mg/kg): 0.1586 h⁻¹; Kel ([1]; ICR mice, PO 25 mg/kg): 0.1076 h⁻¹; AUC(0-t) at 8 h ([1]; in vivo, iv, 5 mg/kg): 2910 ng·h/mL; AUC(0-t) at 8 h ([1]; in vivo, po, 25 mg/kg): 1580 ng·h/mL; compound identified in tumors ([2]; 30 mg/kg IV): about 42.9 micromolar; compound identified in tumors ([2]; 60 mg/kg IV): ~7.0 µM; compound identified in plasma ([2]; 200 mg/kg orally): ~9.5 µM; compound identified in tumors ([2]; 200 mg/kg orally): ~6.4 µM; tumor growth (MCF-7 xenografts): significantly inhibited tumor growth; tumor growth (PC-3 xenografts): significantly inhibited tumor growth; caspase-3 cell staining levels versus untreated control cells (caspase-3): four-fold greater
2 | O=C(O)c1ccc2c(c1)nc(Nc1ccc(Cl)cc1)c1ccncc12 [drawing 308] |  |  |  |  |  |  |  |  |  |  |  |  |  | IC50 (HCT-116): 6.72 µM; IC50 (H1299): 1.94 µM; IC50 (Hs578T): 6.64 µM; IC50 (PC3): 8.63 µM; IC50 (Jurkat): 2.53 µM; IC50 (MiaPaCa): 2.7 µM; IC50 (A375): 4.8 µM
3 | O=C(O)c1ccc2c(c1)nc(Nc1cc(F)cc(F)c1)c1ccncc12 [drawing 311] |  |  |  |  |  |  |  |  |  |  |  |  |  | IC50 (HCT-116): 4.33 µM; IC50 (H1299): 8.91 µM; IC50 (Hs578T): 9.09 µM; IC50 (PC3): 10.1 µM; IC50 (Jurkat): 2.41 µM; IC50 (MiaPaCa): 1.35 µM; IC50 (A375): 5.4 µM
4 | O=C(O)c1ccc2c(c1)nc(Nc1ccccc1)c1ccncc12 [drawing 372] | 4.86 | 13.7 | 2.66 | 10.8 | 8.18 | 4.16 | 4.01 |  |  |  |  |  |  | 
5 | O=C(O)c1ccc2c(c1)nc(Nc1ccc(F)c(Cl)c1)c1ccncc12 [drawing 373] | 1.92 | 4.51 | 6.13 | 8.24 | 4.57 | 6.83 | 4.95 |  |  |  |  |  |  | 
6 | O=C(O)c1ccc2c(c1)nc(Nc1cccc(Cl)c1)c1ccncc12 [drawing 376] | 2.64 | 3.32 |  | 17.7 | 4.89 | 6.59 | 2.99 |  |  |  |  |  |  | 
7 | O=C(O)c1ccc2c(c1)nc(Nc1cc(F)cc(F)c1)c1ncncc12 [drawing 377] | 1.85 | 8.47 | 3.1 | 2.02 | 1.83 | 24.6 | 2.41 |  |  |  |  |  |  | 
8 | C#Cc1cccc(Nc2nc3cc(C(=O)O)ccc3c3cncnc23)c1 [drawing 380] | 4.49 | 3.38 | 4.25 | 1.27 | 1.4 | 21.2 | 1.2 |  |  |  |  |  |  | 
9 | O=C(O)c1ccc2c(c1)nc(Nc1cccc(Cl)c1)c1ccncc12 [drawing 448] |  |  |  |  |  |  |  | 9.03 | 1.96 | 2.75 | 10.3 | 17.8 | 1.56 | IC50 (MCF-10A): 0.53 µM; IC50 (HL-60/MX2): 10.5 µM
10 | C#Cc1cccc(Nc2nc3cc(C(=O)O)ccc3c3cncnc23)c1 [drawing 452] |  |  |  |  |  |  |  | 20.2 | 7.04 | 2.58 | 7.33 | 2.34 | 12.4 | IC50 (MCF-10A): 0.64 µM; IC50 (HL-60/MX2): 8.81 µM
11 | C#Cc1cccc(Nc2nc3cc(C(=O)O)ccc3c3cncnc23)c1 [drawing 547] |  |  |  |  |  |  |  |  |  |  |  |  |  | F(0-Inf) ([1]; ICR mice, PO 24.5 mg/kg): 31.1%; F([…]) ([1]; ICR mice, PO 24.5 mg/kg): 26.5%; Kel ([1]; ICR mice, PO 24.5 mg/kg): 0.0594 h⁻¹; AUC(0-t) at 8 h ([1]; plasma, po, 24.5 mg/kg): 6000 ng·h/mL

More lines, main results first:

Row | IC50 (HL-60) [µM] | IC50 (Raji) [µM] | IC50 (MDAMB231) [µM] | IC50 (MCF-7) [µM] | IC50 (LNCaP) [µM] | IC50 (A549) [µM] | IC50 (K-562) [µM] | IC50 (SK-OV-3) [µM] | IC50 (COLO205) [µM] | IC50 (BxPC3) [µM] | IC50 (H460) [µM] | IC50 (PanC1) [µM] | IC50 (HT29) [µM] | SMILES | further results
12 | 9.68 | 4.51 | 0.84 | 1.06 | 1.36 | 14.1 | 1.77 |  |  |  |  |  |  | O=C(O)c1ccc2c(c1)nc(Nc1cccc(F)c1)c1ncncc12 [drawing 378] | 
13 | 7.35 |  | 1.18 | 1.79 | 1.56 | 28.5 | 1.13 |  |  |  |  |  |  | O=C(O)c1ccc2c(c1)nc(Nc1cccc(Cl)c1)c1ncncc12 [drawing 379] | 
14 | 0.73 | 4.97 | 2.38 | 3.4 | 1.44 | 13.9 |  |  |  |  |  |  |  | CNc1ncc2c(n1)c(Nc1ccccc1)nc1cc(C(=O)O)ccc12 [drawing 383] | 
15 | 3.74 | 5.46 | 3.79 | 0.76 | 7.39 | 9.74 | 8.65 |  |  |  |  |  |  | O=C(O)c1ccc2c(c1)nc(Nc1ccc(Cl)cc1)c1ccncc12 [drawing 384] | 
16 | 5.59 | 4.28 | 11.8 | 1.43 | 17.1 | 30.2 | 3.33 |  |  |  |  |  |  | C#Cc1cccc(Nc2nc3cc(C(=O)O)ccc3c3cnccc23)c1 [drawing 385] | 
17 | 4.81 | 6.35 | 11 | 1.89 | 10.8 | 27.4 | 3.26 |  |  |  |  |  |  | O=C(O)c1ccc2c(c1)nc(Nc1cc(F)cc(F)c1)c1ccncc12 [drawing 387] | 
18 |  |  |  |  |  |  |  | 20.7 | 8.92 | 10.8 | 37.5 | > 50 |  | O=C(O)c1ccc2c(c1)nc(Nc1ccccc1)c1ccncc12 [drawing 443] | IC50 (MCF-10A): 3.84 µM
19 |  |  |  |  |  |  |  | 7.33 | 2.2 | 1.5 | 8.69 | 1.84 |  | O=C(O)c1ccc2c(c1)nc(Nc1ccc(F)c(Cl)c1)c1ccncc12 [drawing 444] | 
20 |  |  |  |  |  |  |  |  |  |  |  |  | 12.8 | O=C(O)c1ccc2c(c1)nc(Nc1cccc(F)c1)c1ccncc12 [drawing 447] | 
21 |  |  |  |  |  |  |  | 6.98 | 5.69 | 3.34 | 4.19 | 9.34 | 12.4 | O=C(O)c1ccc2c(c1)nc(Nc1cc(F)cc(F)c1)c1ncncc12 [drawing 449] | IC50 (MCF-10A): 1.08 µM
22 |  |  |  |  |  |  |  | 14.4 | 6.16 | 3.48 | 6.16 | 3.79 | 17 | O=C(O)c1ccc2c(c1)nc(Nc1cccc(F)c1)c1ncncc12 [drawing 450] | 
23 |  |  |  |  |  |  |  | 8.97 | 8.62 | 1.48 | 4.1 | 18.7 | 13 | O=C(O)c1ccc2c(c1)nc(Nc1cccc(Cl)c1)c1ncncc12 [drawing 451] | 
24 |  |  |  |  |  |  |  | 1.06 | 9.56 | 1.83 | 4.06 | 15.9 | 15.3 | CNc1ncc2c(n1)c(Nc1ccccc1)nc1cc(C(=O)O)ccc12 [drawing 455] | IC50 (HL-60/MX2): 5.68 µM
25 |  |  |  |  |  |  |  | 15.3 | 1.57 | 6.38 | 9.1 | 25.8 | 26.9 | O=C(O)c1ccc2c(c1)nc(Nc1ccc(Cl)cc1)c1ccncc12 [drawing 456] | 
26 |  |  |  |  |  |  |  | 23.4 | 4.44 | 3.7 | 13.8 | 4.07 | 45.5 | C#Cc1cccc(Nc2nc3cc(C(=O)O)ccc3c3cnccc23)c1 [drawing 457] | IC50 (MCF-10A): 0.73 µM
27 |  |  |  |  |  |  |  | 10.1 | 3.62 | 1.63 | 7.53 | 24 | 16.6 | O=C(O)c1ccc2c(c1)nc(Nc1cc(F)cc(F)c1)c1ccncc12 [drawing 459] | 
28 |  |  |  |  |  |  |  |  |  | 3.62 |  | > 50 | 41.8 | N#Cc1cccc(Nc2nc3cc(C(=O)O)ccc3c3cnccc23)c1 [drawing 460] | 

From EP2061765B1, “Serine-threonine protein kinase and PARP modulators” (Senhwa Biosciences, Inc., priority 2006, dated 2008)
